Experimental data published in US20230391684A1, “NITROGEN FERTILIZER COMPOSITIONS BASED ON POLYPHOSPHATE CAGED STRUCTURE” (priority 2020, published 2023).

Experiments:
[1] = Water leaching assay (2 g, 10 mL water, 8 min): water-soluble and water-insoluble nitrogen/urea; type: physicochemical; details: 2 g leached with 10 mL water in 8 min, dried residue
Procedure: Determination of water-insoluble nitrogen: 2 g of the product in powder form, is weighed into a filter paper (Whatman 1) placed in a funnel. It is leached with 10 mL water added dropwise from a burette within a period of 8 min. The wet residue is placed together with the filter paper, in a petridish and dried at 50° C. After drying, the residue is ground and used for analysis of nitrogen.
Determination of water-soluble nitrogen: 2 g of the product in powder form, is weighed into a filter paper (Whatman 1) placed in a funnel. It is leached with 10 mL water added dropwise from a burette within a period of 8 min. The filtrate is placed together with the filter paper, in a petridish and dried at 50° C. After drying, the dried mass is weighed. It is analyzed for N as described above.

[2] = Text: The fertilizer composition will contain urea with reduced water solubility. […] Preferably no more than 30 to 60 wt. % of the urea is soluble. More preferably no more than 30 to 50 wt. % of urea is soluble.
XRD was of the granulated product which was powdered for recording of XRD.

For `NC(N)=O` [urea], the “urea content of residue after leaching with water” value [1] was “no urea was detectable” and the “total N from fertilizer soluble in water” value [2] was 100 wt. %.
